The values below are quoted from earlier work in patent US20240207289A1 (priority 2022, published 2024).

The series concerns the target Cannabinoid-2 (CB2R) receptor (Homo sapiens, UniProt P34972).

Cannabinoid-2 (CB2R) receptor, sequence (P34972 whole entry): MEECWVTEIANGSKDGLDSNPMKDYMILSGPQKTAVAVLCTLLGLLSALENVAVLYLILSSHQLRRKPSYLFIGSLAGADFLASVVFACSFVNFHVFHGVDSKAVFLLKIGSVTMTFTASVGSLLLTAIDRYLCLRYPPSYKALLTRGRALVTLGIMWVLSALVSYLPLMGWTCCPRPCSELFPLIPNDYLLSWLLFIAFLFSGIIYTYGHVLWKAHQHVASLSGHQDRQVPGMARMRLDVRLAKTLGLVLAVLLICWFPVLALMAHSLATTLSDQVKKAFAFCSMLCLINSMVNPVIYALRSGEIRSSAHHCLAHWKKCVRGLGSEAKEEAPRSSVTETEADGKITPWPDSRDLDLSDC

As for `CCCCCc1cc(O)c2c(c1)OC(C)(C)[C@@H]1CCC(C)=C[C@@H]21` [THC, delta-9-tetrahydrocannabinol], the “activity at Cannabinoid-2 receptor” value is given as “weak partial agonist activity”.
